What all share (test): DTP human tumour cell line panel, 48 h
Assay [1] deals with U-251.
Assay [2] deals with OVCAR-5.
In assay [3] the test system is NCI-H226.
For assay [4], the system named is UACC-62.
Assay [5] deals with MOLT-4.
In assay [6] the test system is A498.
Assay [7] deals with Malme-3M.
The subject of assay [8] is LXFL 529.
Assay [9] concerns 786-0.
Assay [10] concerns SF-295.
Assay [11] deals with CAKI-1.
The subject of assay [12] is SR.
The subject of assay [13] is SF-268.
For assay [14], the system named is KM12.
The subject of assay [15] is UO-31.
For assay [16], the system named is NCI-H522.
The test system of assay [17] is CCRF-CEM.
For assay [18], the system named is KM-20L2.
Assay [19] has as its system HCC 2998.

The text below walks through data of ChEMBL document CHEMBL1201862, “PubChem BioAssay data set” (2004).

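Compound exposure: 48 hours, 5 concentrations, 96-well plates. At the GI50, growth is halved.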 Activity calls are given as the source filed them. No stated cut-off is given here; in the data, active = GI50 up to about 1.1 µM and inactive = higher. Non-standard residues stand in square brackets, D forms with d. Residues, ends and D or L forms follow the SMILES beside them. *: point of attachment. NMeF = CN[CH](Cc1ccccc1)C(=O)O; NMeV = CN[CH](C(=O)O)C(C)C; Boc = CC(C)(C)OC(=O)*

Regarding `CCCCCCCCC/C=C1\CCC(CN(C)C)C1=O` (configuration not stated), the GI50 in [1] is 1.66 µM (inactive); in [2] it was 14.8 µM (inactive); in assay [3], 9.51 µM (inactive); in [4], 2.48 µM (inactive); in assay [5], 2.62 µM (inactive); in [6], 2.48 µM (inactive). Moreover, the GI50 in assay [7] is 3.03 µM (inactive); in assay [8], 1.34 µM (inactive); in [9], 0.281 µM (active); in assay [10], 3.22 µM (inactive); in assay [11], 2.25 µM (inactive); in assay [12], 2.43 µM (inactive). The GI50 in assay [13] was 1.97 µM (inactive); in assay [14], 1.64 µM (inactive); in assay [15], 2.02 µM (inactive); in assay [16], 1.95 µM (inactive); in assay [17] it was 0.721 µM (active); in [18], 2.18 µM (inactive). Moreover, in assay [19], the GI50 was 3.5 µM (inactive).
For the compound `CC(=O)C(CN(Cc1ccccc1)Cc1ccccc1)C(c1ccccc1)c1c(O)c2ccccc2oc1=O` (configuration not stated), the GI50 in assay [1], in assay [2], in assay [3], in assay [4], in [6] and in [7] was > 100 µM (inactive) each time. Further, the GI50 in assay [8], in assay [9], in [10], in assay [11], in [12] and in [13] was > 100 µM (inactive) each time. The GI50 in [14], in assay [15], in assay [16], in assay [17] and in assay [18] was > 100 µM (inactive) in each case.
For the compound `COc1cc2c3c(c1OC)C1(C=CC(=O)C=C1)CC3N(C(=O)OC(C)(C)C(Cl)(Cl)Cl)CC2` (configuration not stated), the GI50 was 10.5 µM (inactive) in assay [1]; 2.52 µM (inactive) in assay [2]; 15.9 µM (inactive) in assay [3]; 13.1 µM (inactive) in [4]; 2.97 µM (inactive) in assay [5]; 16.7 µM (inactive) in [6]. In addition, the GI50 was 14.2 µM (inactive) in assay [7]; 8.85 µM (inactive) in [8]; 14.2 µM (inactive) in assay [9]; 13.4 µM (inactive) in assay [10]; 14.9 µM (inactive) in [11]; 3.5 µM (inactive) in assay [12]. Further, the GI50 in assay [13] was 13.1 µM (inactive); in assay [14], 9.2 µM (inactive); in assay [15], 14.5 µM (inactive); in [16], 8.93 µM (inactive); in [17] it was 7.73 µM (inactive); in [18], 11.4 µM (inactive).
For the compound `COc1ccc2nc3cc(Cl)ccc3c(Sc3ccc(NC(C)=O)cc3)c2c1`, the GI50 in assay [2] is > 29 µM (inactive); in [4], 15.3 µM (inactive); in assay [5] it was 6.87 µM (inactive); in assay [6], > 41.7 µM (inactive); in [7], > 35.2 µM (inactive); in assay [8], 7.31 µM (inactive). The GI50 in assay [9] is 8.15 µM (inactive); in assay [10], > 25.9 µM (inactive); in assay [11], > 27 µM (inactive); in [12] it was 3.66 µM (inactive); in [14] it was 9.33 µM (inactive); in assay [16], 2.79 µM (inactive). Moreover, the GI50 in assay [17] was 9.18 µM (inactive); in assay [18] it was > 21.3 µM (inactive); in assay [19], 2.74 µM (inactive).
Take `CC(=O)OC1COC(N2C(=O)C(=O)c3cc(Br)ccc32)C(OC(C)=O)C1OC(C)=O` (configuration not stated): the GI50 is > 100 µM (inactive) in [1]; > 100 µM (inactive) in assay [3]; > 100 µM (inactive) in assay [4]; 96.8 µM (inactive) in [5]; > 100 µM (inactive) in assay [6]; > 100 µM (inactive) in assay [7]. Moreover, the GI50 in [8], in [9], in assay [10], in assay [11], in assay [12] and in [13] was > 100 µM (inactive) each time. Also, the GI50 in assay [14] is > 100 µM (inactive); in [15], > 100 µM (inactive); in [16], > 100 µM (inactive); in assay [17] it was 71.3 µM (inactive); in assay [18], > 100 µM (inactive); in assay [19], > 100 µM (inactive).
Consider `CC(C)C(NC(=O)OC(C)(C)C)C(=O)N(C)C(Cc1ccccc1)C(=O)N(C)C(C(=O)N(C)C(C(=O)O)C(C)C)C(C)C` (configuration not stated) (Boc-V[NMeF][NMeV][NMeV]-OH; configuration not given here), for which the GI50 in [1], in [3], in assay [4], in [5], in assay [7] and in assay [8] was > 100 µM (inactive) each time. Further, the GI50 in [9], in [10], in assay [12], in assay [13], in [14] and in assay [15] was > 100 µM (inactive) in each case. The GI50 in [16], in assay [17], in [18] and in [19] was > 100 µM (inactive) throughout.
On to `O=C1C2=C(CCC2)Nc2cccc3ncn1c23`, for which the GI50 in [1] was > 100 µM (inactive); in assay [2], 15.9 µM (inactive); in assay [4], 40.1 µM (inactive); in [5], > 100 µM (inactive); in assay [7], > 100 µM (inactive); in assay [8], > 100 µM (inactive). Besides, the GI50 in [9] was > 100 µM (inactive); in assay [10], > 100 µM (inactive); in assay [12] it was > 100 µM (inactive); in assay [13], > 100 µM (inactive); in [14] it was 28.8 µM (inactive); in [15] it was > 100 µM (inactive). Further, the GI50 is 69.7 µM (inactive) in assay [16], > 100 µM (inactive) in assay [17], 41.9 µM (inactive) in [18] and > 100 µM (inactive) in [19].
In the case of `O=C(O)C(CS)NCc1c2ccccc2nc2ccccc12` (configuration not stated), the GI50 in assay [1] was 92 µM (inactive); in [2], > 100 µM (inactive); in assay [3], > 100 µM (inactive); in assay [5] it was 15.3 µM (inactive); in [7] it was 38.2 µM (inactive); in assay [8], 39.7 µM (inactive). For the same compound, the GI50 was 55.2 µM (inactive) in assay [9]; 43.2 µM (inactive) in assay [10]; 34.4 µM (inactive) in [11]; 19.5 µM (inactive) in assay [12]; 40.7 µM (inactive) in assay [13]; 26.9 µM (inactive) in assay [14]. For the same compound, the GI50 is 18.5 µM (inactive) in [15]; 25 µM (inactive) in [16]; 19 µM (inactive) in assay [17]; 41.6 µM (inactive) in assay [18]; 40.6 µM (inactive) in assay [19].
As to `O=C(CC(=O)N1N=C(c2ccccc2)C(/N=N/c2ccc(Cl)cc2)C1=O)Nc1ccccc1Cl` (configuration not stated), the GI50 in assay [1] is 24.5 µM (inactive); in assay [2], > 100 µM (inactive); in [3] it was 19 µM (inactive); in assay [4], 21.6 µM (inactive); in [5], 33 µM (inactive); in assay [6], > 10 µM (inactive). In addition, the GI50 is 26.7 µM (inactive) in assay [8]; 12.2 µM (inactive) in assay [9]; 19.5 µM (inactive) in assay [11]; 24.7 µM (inactive) in [12]; 22.5 µM (inactive) in assay [13]; 33.8 µM (inactive) in assay [14]. Moreover, the GI50 in assay [15] was 22 µM (inactive); in assay [16], 30.3 µM (inactive); in [18], 80.9 µM (inactive); in [19], 68.7 µM (inactive).
Regarding `O=C1c2ccccc2C(=O)c2[nH]c(Cc3ccccc3F)nc21`, the GI50 in assay [1] was 7.96 µM (inactive); in assay [3] it was 48.2 µM (inactive); in assay [4], 46.1 µM (inactive); in assay [5] it was 89.7 µM (inactive); in [7], 40.7 µM (inactive); in [8], 31.9 µM (inactive). Besides, the GI50 in [9] was 38.5 µM (inactive); in [10], 59.2 µM (inactive); in assay [11], 86.7 µM (inactive); in assay [12] it was 68.2 µM (inactive); in assay [13], 40.7 µM (inactive); in [14] it was 38.9 µM (inactive). For the same compound, the GI50 in assay [15] was 52.5 µM (inactive); in assay [16], 21.3 µM (inactive); in [17], > 100 µM (inactive); in assay [18], 33.9 µM (inactive); in assay [19], > 100 µM (inactive).
Consider `O=S(=O)(/C=C/c1ccc(F)cc1)Cc1ccc(CS(=O)(=O)/C=C/c2ccc(F)cc2)cc1`, for which the GI50 in assay [1], in [2], in [3], in [4], in assay [5] and in [7] was > 100 µM (inactive) each time. In addition, the GI50 in assay [8], in [9], in [10], in assay [11], in [12] and in [13] was > 100 µM (inactive) each time. The GI50 in assay [14], in assay [15], in assay [16], in assay [17], in [18] and in assay [19] was > 100 µM (inactive) throughout.

Usually GI50 stands for the concentration that inhibits growth by half.
